Laboratory results taken from PubChem BioAssay (NCI).
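In this assay, cells in 96-well plates receive the compound at five concentrations for 48 hours. Endpoints are linearly interpolated between the surrounding concentrations. GI50 = concentration required for 50% inhibition of growth. TGI denotes the concentration required for complete inhibition of growth.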

How the values were obtained:
Assay in all cases: inhibition of tumour cell growth, NCI panel, 48 h
[1] = test system: SW-620 colon
[2] = test system: SK-MEL-5 melanoma
[3] = test system: OVCAR-4 ovarian
[4] = test system: ACHN renal
[5] = test system: HOP-62 NSCLC
[6] = test system: KM12 colon
[7] = test system: OVCAR-8 ovarian
[8] = test system: U251 CNS
[9] = test system: SNB-75 CNS
[10] = test system: COLO 205 colon

| SMILES | TGI [1] | TGI [2] | TGI [3] | TGI [4] | TGI [5] | TGI [6] | TGI [7] | TGI [8] | TGI [9] | TGI [10] | GI50 [1] | GI50 [2] | GI50 [3] | GI50 [4] | GI50 [5] | GI50 [6] | GI50 [7] | GI50 [8] | GI50 [9] | GI50 [10] |
| --- | --- | --- | --- | --- | --- | --- | --- | --- | --- | --- | --- | --- | --- | --- | --- | --- | --- | --- | --- | --- |
| O=Cc1ccc2c(c1I)OCO2 | > 100 µM | > 100 µM | > 100 µM | > 100 µM | > 100 µM | > 100 µM | > 100 µM | > 100 µM | > 100 µM | > 100 µM | – | – | – | – | – | – | – | – | – | – |
| Nc1nc(N)c(CCCCc2ccccc2)c(N)n1 | > 100 µM | > 100 µM | > 100 µM | > 100 µM | > 100 µM | > 100 µM | > 100 µM | > 100 µM | > 100 µM | > 100 µM | – | – | – | – | – | – | – | – | – | – |
| O=C1C(OCCOc2ccccc2)=C(OCCOc2ccccc2)C(=O)c2ccccc21 | > 100 µM | 4.86 µM | > 100 µM | > 100 µM | > 100 µM | > 100 µM | > 100 µM | > 100 µM | > 100 µM | > 100 µM | 4.7 µM | 1.92 µM | 7.1 µM | 5.09 µM | 9.26 µM | 4.71 µM | > 100 µM | 5 µM | 20.1 µM | 41.9 µM |
| COc1cc2c(cc1F)C(c1ccccc1Cl)=Nc1c(n[nH]c1C)N2 | 20 µM | 6.51 µM | 28.6 µM | 10.2 µM | 19.1 µM | 15.5 µM | 30.4 µM | 18.3 µM | 0.724 µM | 3.79 µM | 0.486 µM | 0.328 µM | 5.63 µM | 1.45 µM | 1.31 µM | 0.502 µM | 6.29 µM | 0.583 µM | 0.189 µM | 0.416 µM |
| Oc1cc(-n2cccn2)c(O)cc1-n1cccn1 | 42.9 µM | 58 µM | 36.9 µM | 37.4 µM | > 76.1 µM | > 86.5 µM | 51.9 µM | > 78.2 µM | > 97.3 µM | 37.9 µM | – | – | – | – | – | – | – | – | – | – |
| COc1cc(C(=O)c2cc(C)c3[nH]c4ccc(O)cc4c3c2C)cc(OC)c1OC | > 100 µM | 0.0637 µM | > 100 µM | > 100 µM | > 70.9 µM | 23.8 µM | > 100 µM | > 100 µM | 8.71 µM | 0.11 µM | < 0.0129 µM | 0.0162 µM | 1.05 µM | < 0.0128 µM | 0.0297 µM | < 0.0127 µM | 0.0317 µM | 0.0226 µM | < 0.01 µM | 0.0298 µM |
| FC(F)(F)c1cccc(-c2nn3ncccc3c2-c2ccnc(Nc3ccc4c(c3)OCCO4)n2)c1 | > 25 µM | > 25 µM | > 25 µM | > 25 µM | > 25 µM | > 25 µM | > 25 µM | > 25 µM | > 25 µM | > 25 µM | 9.68 µM | 7.87 µM | 10.3 µM | 6.42 µM | > 25 µM | 14.1 µM | 10.6 µM | 19.5 µM | > 18.6 µM | 14.1 µM |
| CC1=C(C(=O)Nc2ccc(Cl)c(Cl)c2)C(c2ccc([N+](=O)[O-])cc2)C(C(=O)Nc2ccc(Cl)c(Cl)c2)=C(C)N1 | 12.4 µM | 3.39 µM | 11.8 µM | 16.9 µM | 8.7 µM | 3.63 µM | 8.58 µM | 11.5 µM | 20.5 µM | 3.13 µM | – | – | – | – | – | – | – | – | – | – |
| CN=C1OC2(c3ccccc3)C3=C(OC(=NC)N2C)C(=O)OC3(c2ccccc2)N1C (stereo not given) | > 100 µM | > 100 µM | > 100 µM | > 100 µM | > 100 µM | > 100 µM | > 100 µM | > 100 µM | > 100 µM | > 100 µM | – | – | – | – | – | – | – | – | – | – |
